The nature of data set [1]: Pharmacokinetics after intranasal administration in rabbits. The data set is classed as in vivo, New Zealand white rabbits. The method, then: The pharmacokinetic profiles for Example 1A, 1B and 1C as well as an olapatdine nasal formulation were each determined on 6 male New Zealand white rabbits. The olopatadine nasal formulation (0.6% w/v) was prepared from Olopat Max® 0.7% w/v, where Olopat Max® was diluted to 0.6% w/v by using purified water.
(§1) The study was carried out on total 24 male New Zealand white rabbits, which were segregated into four groups (G1 to G4, 6 rabbits/group). Mild anaesthesia was induced in all rabbits by inhalation of 2% isoflurane. Three groups (G1-G3) of anaesthetized rabbits were intranasally administered 250 μL of alcaftadine once daily using the formulations of Examples 1A, 1B, and 1C. A comparator, 250 μL of olopatadine at a concentration of 0.6% w/v, was intranasally administered once-daily to a fourth group G4 of anaesthetized rabbits.
Sampling details for the test and reference formulations: Approximately 0.5 mL of blood sample from each rabbit was withdrawn via marginal car vein into pre-labelled Eppendorf tubes containing 10% EDTA as an anticoagulant. Blood samples were withdrawn at 0 min, 5 min, 10 min, 15 min, 30 min, 60 min, 120 min, 240 min, 480 min and 1440 min after administration of test and reference formulations.
(§2) Procedure for sample preparation: Collected blood samples were mixed gently and kept on crushed ice. Plasma samples were separated after centrifugation at 3500 rpm for 10 min at 4° C. Plasma separation was carried out within 30 min of sample collection and stored at −70±10° C. The animals were euthanized by intravenous administration of sodium thiopental injection overdose and nasal epithelium was collected. Half of the tissues of nasal epithelium were homogenized using phosphate buffered solution (20% homogenation) for quantification of alcaftadine and olopatidine. The remaining half of the tissues were stored in 10% neutral buffered formalin for detailed gross histopathological examination such as necrosis, inflammation or any changes during necropsy.
Rabbit plasma and nasal epithelial tissue concentrations of alcaftadine or olopatidine were determined using a fit-for-purpose LC-MS/MS method with LLOQ of 0.500 ng/ml or 0.250 ng/mL, respectively. The pharmacokinetic parameters were evaluated using Phoenix WinNonlin® Ent-Version 8.0 by non-compartmental analysis.

Data set [2] is described as follows: Nasal irritation and histopathology of nasal epithelium after intranasal administration in rabbits. The data set is classed as in vivo, New Zealand white rabbits. The following applies: doses 0.312 mg, 0.625 mg and 1.25 mg, all three groups. The method, then: as §1, §2
The mark [3] stands for this setting: single intranasal administration, doses 0.625 to 1.25 mg, rabbits.

In the case of `CN1CCC(=C2c3ccccc3CCn3c(C=O)cnc32)CC1` [Alcaftadine, 6,11-dihydro-11-(1-methyl-4-piperidinylidene)-5H-imidazo[2,1-b][3]benzazepine-3-carboxaldehyde], in data set [1] (intranasal, rabbits), the “plasma concentration / systemic exposure” value is recorded as “dose proportional with overall low systemic exposure”. Also, the “onset of action versus intranasal olopatadine (from Tmax)” value in data set [1] (intranasal, rabbits, olopatadine 1.5 mg) is “faster onset of action than intranasal olopatadine”. Also, in data set [1] (setting [3]), the “area under the curve (AUC0-24h)” value is “dose proportional” and the “peak plasma concentrations (Cmax)” value is “dose proportional”. Further, in data set [1] (single intranasal instillation, dose 0.625 mg (250 μL of Example 1B), rabbit plasma), the “time to achieve maximum concentration (Tmax)” value is 4.8 min. In data set [2], the “signs or symptoms of inflammation or irritation” value is recorded as “no signs or symptoms of inflammation or irritation were observed”.
`CN(C)CC/C=C1/c2ccccc2COc2ccc(CC(=O)O)cc21` [olopatadine]: the Tmax in data set [1] (male, New Zealand white, inhaled or intranasal, single intranasal administration of 1.5 mg (250 μL, 0.6% w/v), rabbit plasma, read-out: time to reach peak concentration (Tmax)) was determined as 22.8 min.

Source of the values: patent publication US12274702B2, “Nasal compositions comprising alcaftadine” (ALKEM LABORATORIES LIMITED, priority 2021, dated 2025).
